Experimental data: paper PMC8287630 (Journal for Immunotherapy of Cancer, 2021)

Legend:
[1] = In vivo safety evaluation (body weight, hematology, serum biochemistry, histopathology); design: species or system mice; conditions: for histopathology of heart, liver, spleen, lung and kidney: HE staining, versus control group; for animal behavior and body weight after administration: tumor-bearing mice
Protocol: The in vivo safety of CHA-SME was evaluated based on body weight, hematological examination, and histopathological examination in mice. Body weight was monitored throughout the experiment. At the end of the in vivo antitumor experiment, peripheral blood was collected for hematological examination using an automatic hematology analyzer (MEK-7222 K; Nihon Kohden, Tokyo, Japan). Additionally, the serum was separated to detect […] (ALT), […] (AST), blood urea nitrogen (BUN), and creatinine (CRE) to evaluate hepatic and renal functions using an automatic biochemical analyzer (Accute TBA-40FR; TOSHIBA, Kawasaki, Japan). Heart, liver, spleen, lung, kidney, stomach, small intestine, and MLNs were collected, fixed in 4% PFA, and subjected to histopathological examination using HE staining.

[2] = Pharmacokinetic study in rats; type: in vivo; conditions: male, SD, rat, plasma, po, 30 mg/kg
Protocol: (§1) Pharmacokinetic studies of free CHA and CHA-SME were performed using SD rats and beagle dogs. […] At 5, 15, 30 min, 1, 2, 4, 6, and 8 hours, approximately 0.2 mL of blood was collected from the orbital into an anticoagulant tube and centrifuged at 4500 rpm for 10 min to separate the plasma. All plasma samples were stored frozen at –80°C until LC-MS/MS analysis (TSQ Quantum Access MAX; Thermo Fisher Scientific, Waltham, MA, USA).

G422 glioma = test: In vivo antitumor efficacy, subcutaneous G422 glioma model; design: species or system ICR mice; conditions: 14 days; CHA 20 mg/kg i.p., CHA-SME 35 mg/kg p.o.
Protocol: A subcutaneous glioma tumor model was established in female ICR mice, as mentioned above. […] The positive control group was orally administered TMZ (50 mg/kg) for 5 days. The blank CHA-SME group was orally administered with blank CHA-SME for 14 days. At the end of the experiment, all mice were euthanized, and the tumors were collected, weighed, and photographed. […] The positive control group was orally administered TMZ (50 mg/kg) for 5 days. […] The CHA-SME group was orally administered CHA-SME (35 mg/kg) for 14 days. At the end of the experiment, all mice were euthanized, and the tumors were collected, weighed, and photographed.

[3] = Pharmacokinetic study in beagle dogs; type: in vivo; conditions: dog, plasma, 30 mg/kg
Protocol: as §1

DCs and T cells = test: Immunomodulatory effects in vivo (immunophenotype of DCs and T cells, cytokines); design: species or system mice; conditions: CHA-SME 35 mg/kg; versus control treatment
Protocol: The in vivo immunomodulatory effects of CHA-SME were evaluated by analyzing the immunophenotype of LYM and cytokine production. LYM (DCs and T cells) infiltrated into the blood, tumor, and other important immune organs (MLNs and spleen) were quantitatively analyzed by flow cytometry. Fresh tumors were cut into small pieces and digested at 37°C for 40 min. Fresh MLNs and spleens were cut into small pieces and ground into single-cell suspensions. The cells were collected, washed, and incubated with different fluorescein-conjugated antibodies. The cell suspensions were filtered through 400-mesh sieves after two washes and analyzed by flow cytometry ([…] Biosciences, San Diego, California, USA). For immunophenotype analysis of T cells, CD45 +CD3+CD44+CD62L+cells and CD45 +CD3+CD44+CD62 L-cells were considered to be central memory T cells (TCM) and effector memory T cells (TEM), respectively. For DC maturation analysis, the expression levels of MHC I, CD40, CD80, and CD86 on DCs were examined. Different cytokines (IFN-γ, tumor necrosis factor α (TNF-α), and IL-10) in tumors, MLNs, spleens, and blood were quantitatively determined using bead-based LEGENDplex kits following the manufacturer's protocol.

[4] = test system: several human cancer cell lines; conditions: cited from earlier work
[5] = type: in vivo; conditions: mice, oral 1 mg/kg, 30 min; figure 5C
Protocol: To evaluate the uptake of CHA-SME in the intestinal tissues and MLNs, Cou-6-labeled CHA-SME were orally administered to mice at 1 mg/kg. Thirty minutes later, the mice were sacrificed and intestinal segments (including duodenum, jejunum, ileum, and colon,~1 cm each) and MLNs were surgically collected, placed in embedding compound, frozen in liquid nitrogen, and dissected. The slices were fixed with 4% PFA, stained with TRITC phalloidin and DAPI, and imaged using CLSM. Additionally, MLNs were ground into single-cell suspensions and the fluorescence intensity was determined by flow cytometry.
To investigate the lymphatic transport of CHA-SME in vivo, mice were i.p. administered 3.0 mg/kg cycloheximide to block chylomicron flow.[37 38] One-hour postinjection, DiR-labeled or Cou-6-labeled CHA-SME was orally administered at 1.0 mg/kg. The mice were examined as described above.

Caco-2 cell monolayers = test: Transport within Caco-2 cell monolayers (CLSM); type: cell-based, human; conditions: 4 hours incubation
Protocol: To establish an in vitro Caco-2 cell monolayer model, Caco-2 cells were plated in a 12-well Transwell plate with a 0.4 µm pore polycarbonate membrane insert (Corning, Corning, New York, USA). A total of 0.5 mL of cell culture medium containing 2×10^5 cells was added in the upper compartment of each Transwell insert, and 1.5 mL of cell culture medium was added in the lower compartment. The culture medium in both compartments was changed every other day in the initial 14 days and every day in the following 7 days. After 21 days of culture, transepithelial electrical resistance (TEER) was measured using Millicell-ERS (Millipore, Billerica, Massachusetts, USA) to monitor cell monolayer integrity. A TEER value exceeding 800 Ω was selected for subsequent transepithelial transport study of CHA-SME.
For the transepithelial transport study of CHA-SME, Caco-2 cell monolayers cultured in Transwell plates were incubated with Cou-6-labeled CHA-SME for 4 hours at 37°C. Then, the cells were washed thrice with cold PBS, and the polycarbonate membrane with cultured cells was carefully cut from the insert. After fixation with 4% PFA and staining with TRITC phalloidin and DAPI, the excised membrane was placed in a glass slide and examined by CLSM.

| SMILES | histopathology of heart, liver, spleen, lung and kidney [1] | animal behavior and body weight after administration [1] | AUC [2] [ng·h/mL] | tumor growth (G422 glioma) | bioavailability ([3]; oral, read-out: oral absolute bioavailability) [%] | AUC ([3]; po, read-out: AUC Mean±SD) [ng·h/mL] | proportion of infiltrating CD3+, CD4+ and CD8+ T cells in brain glioma tissues (DCs and T cells) | effective dose for inhibition of cell proliferation / induction of apoptosis [4] | percentage of Cou-6-positive lymphocytes in MLNs [5] [%] | green fluorescence within Caco-2 cell monolayers (Caco-2 cell monolayers) |
| --- | --- | --- | --- | --- | --- | --- | --- | --- | --- | --- |
| O=C(/C=C/c1ccc(O)c(O)c1)O[C@@H]1C[C@](O)(C(=O)O)C[C@@H](O)[C@H]1O [CHA, Chlorogenic acid] | no obvious organ lesion | tolerated the regimens well | 35.8 ± 10.9 | able to inhibit tumor growth | 5.85 | 692 ± 179 | no significant difference | higher than 100 µM |  |  |
| CCN(CC)c1ccc2cc(-c3nc4ccccc4s3)c(=O)oc2c1 [Cou-6, Coumarin-6] |  |  |  |  |  |  |  |  | 7.2 | negligible green fluorescence |
| Cn1nnc2c(C(N)=O)ncn2c1=O [TMZ, temozolomide] | a certain degree of fragmentation and pathological changes in the heart and spleen | marked weight loss and sparse hair |  |  |  |  |  |  |  |  |
